The source of these data is ChEMBL document CHEMBL1150090, “Agastaquinone, a new cytotoxic diterpenoid quinone from Agastache rugosa” (1995).

Type in all cases: functional
Holding throughout (details): read-out: ED50 (the source's name)

One test relates to HCT-15. Nature of the test: Cytotoxicity against human HCT15 cells.
A further test has as its system SK-OV-3. Kind of test: Cytotoxicity against human SKOV3 cells.
The test system of the next test is XF498. Kind of test: Cytotoxicity against human XF498 cells.
A further test has as its system SK-MEL-2. Nature of the test: Cytotoxicity against human SK-MEL-2 cells.
A further test concerns A549. Kind of test: Cytotoxicity against human A549 cells.

Converted amounts (≈) assume the structure as drawn.

With `COC1=C(C(C)C)C(=O)c2c(O)cc3c(c2C1=O)C=C/C(=N\O)C3(C)C`, the EC50 in the test with HCT-15 was 7 µg/mL (≈ 19.7 µM); with SK-OV-3, 18.7 µg/mL (≈ 52.6 µM); in the test on XF498 it was 8.5 µg/mL (≈ 23.9 µM); with SK-MEL-2, 11.8 µg/mL (≈ 33.2 µM); with A549, 9.1 µg/mL (≈ 25.6 µM).

As for `COC1=C(C(C)C)C(=O)c2c(O)cc3c(c2C1=O)C=CC(=O)C3(C)C` [AGASTAQUINONE], the EC50 in the test with HCT-15 stood at 5.2 µg/mL (≈ 15.3 µM); in the test with SK-OV-3, 12.8 µg/mL (≈ 37.6 µM); in the test with XF498 it was 1.8 µg/mL (≈ 5.29 µM); in the test on SK-MEL-2, 4.1 µg/mL (≈ 12 µM); in the test with A549, 6.8 µg/mL (≈ 20 µM).
